Results: PMC6452685, “Lysyl-tRNA synthetase as a drug target in malaria and cryptosporidiosis” (Proceedings of the National Academy of Sciences of the …, 2019)

Target: PfKRS1 (Plasmodium falciparum, UniProt Q8IDJ8)
Assay: PfKRS1 mode of inhibition, pyrophosphate generation (EnzChek)
Format: biochemical
Design: recombinant PfKRS1 (77–583 and 80–583); His (N); MBP (with TEV site) (N); made in house; host or cells: E. coli BL21 (DE3); codon-optimised gene from Genscript
Method: SUPPLEMENTARY INFORMATION glycerol pH 7.5/protease inhibitor tablets/DNAase) was added and the pellets for defrosted at room temperature for approximately 10 min. The slurry was then passed through a Cell Disrupter (Constant Systems) set at 30 KPSI to l yse the cel ls. The s ample w as t hen cent ri fug ed at 40, 000g for 2 0 mi n. The supernatant was then filtered using syringe filters to 0.45 µm. The s upernat ant w as l oaded ont o a 5 ml Hi Trap Ni HP col umn that had been eq ui l i brated wi th Buffer A (25 m M HEP ES /5 00 m M NaC l /2 0 mM Imi dazol e/2 mM DTT/10% Gl ycerol pH 7.5) at 5 ml /mi n usi ng an AKTA Pure system. Once l oaded the column was washed with 10 column volumes buffer A. A 5% step of Buf fer B (25 mM HEPES /50 0 mM NaC l /500 mM I mi daz ol e/2mM D TT/ 10% Glycerol pH 7.5) was then used to wash off His rich contami nati ng protei ns . […]
2.5 PfKR S1, CpKRS and HsKR S Pyr oph osphate Ge ne r ation EnzChe kTM Ki ne tic M e asur e me nts Steady-state kinetic measurements were conduc ted at room temperature using a PheraStar plate re a de r (BM G ). End-poi nt s fo r t he ami noacy l at i on react i on of PfKRS1, which produces inorganic py roph os phat e t hat i s conv ert ed t o t w o mol ecules of i norg ani c phos phat e us i ng a py rophos phat as e enzyme, were measured usi ng the EnzChek™ Pho sphate Assay Ki t, whi ch gives an absorbance read - out at 36 0 nm. […] The reaction was carried out for 6 h (PfKRS1 an d CpKRS) or 1 2 h (HsKRS) at ro om temperature and then the absorbance o f each wel l was read at 360 nm. The s ubs t rat es Km values were determined by varying the concentration of one of the substrates at saturati ng concentrati on of the othe r. […]
where V is the maximal velocity (here expressed as µM/min of phosphate production), S is the substrate concentration a nd K is the Michaelis constant for the substrate (Km). […]

Chain of PfKRS1 (Q8IDJ8 entry or part of it): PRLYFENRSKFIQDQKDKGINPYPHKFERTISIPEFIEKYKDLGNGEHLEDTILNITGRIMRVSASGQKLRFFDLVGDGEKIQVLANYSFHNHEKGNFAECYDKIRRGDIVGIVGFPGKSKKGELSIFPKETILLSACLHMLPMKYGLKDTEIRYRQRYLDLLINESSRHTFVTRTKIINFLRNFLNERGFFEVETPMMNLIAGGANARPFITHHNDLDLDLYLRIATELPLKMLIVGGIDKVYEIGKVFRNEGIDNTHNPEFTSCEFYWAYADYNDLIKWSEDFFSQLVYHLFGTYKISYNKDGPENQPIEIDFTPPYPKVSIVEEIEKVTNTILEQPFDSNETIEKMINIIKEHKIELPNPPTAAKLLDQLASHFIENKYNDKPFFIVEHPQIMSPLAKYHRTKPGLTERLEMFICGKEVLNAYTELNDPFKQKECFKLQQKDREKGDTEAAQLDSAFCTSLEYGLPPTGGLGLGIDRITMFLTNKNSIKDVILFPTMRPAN

How did the “Ki, linear uncompetitive inhibition vs. L-lysine” value (EnzChek, saturating ATP) turn out when O=C(NCC1(O)CCC(F)(F)CC1)c1cc(=O)c2cc(F)ccc2o1 [Compound 5] was run?
The value was 212 nM.

And the Ki (EnzChek, saturating L-lysine, read-out: Ki, linear competitive inhibition vs. ATP)?
Its Ki is 32 nM.

What about the IC50 (saturating concentrations of both substrates) of the same compound?
Its IC50 is 210 nM.
